PubChem BioAssay (NCI)
Where “and” joins values, the source holds several entries; their conditions need not be identical. Equal values may be shown once.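 Exposure lasted 48 hours, with cells grown in 96-well plates and compounds tested at five concentrations. GI50 is the concentration that inhibits growth by half. TGI: total growth inhibition.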

Columns and labels:
Test in all cases: NCI tumour cell line growth inhibition, 48 h
[1] = tested on: NCI/ADR-RES ovarian
[2] = tested on: M14 melanoma
[3] = tested on: KM12 colon
[4] = tested on: SK-MEL-2 melanoma
[5] = tested on: HS 578T breast
[6] = tested on: SN12C renal
[7] = tested on: DU-145 prostate
[8] = tested on: RPMI-8226 leukemia
[9] = tested on: SK-MEL-5 melanoma
[10] = tested on: SW-620 colon

Row | Compound | TGI [1] [µM] | GI50 [2] [µM] | GI50 [3] [µM] | TGI [3] | GI50 [4] [µM] | TGI [4] | TGI [5] [µM] | GI50 [6] [µM] | TGI [6] | GI50 [7] [µM] | TGI [7] | GI50 [8] [µM] | TGI [8] | GI50 [9] | TGI [9] | GI50 [10] [µM] | TGI [10] | GI50 [1] [µM] | TGI [2] [µM] | GI50 [5] [µM]
1 | Cc1cc(NC(=O)NC(=O)c2ccccc2NC(=O)CN)ccc1Oc1ncc(Br)cn1 | 12.7 | 0.117 | 0.146 | 34.5 µM and > 100 µM | 21.2 | 9.7 µM and 52.9 µM | 4.69 | 0.508 | 38 µM and 49.1 µM | 0.342 | 20.1 µM and 15.9 µM | 0.306 | 57.1 µM and > 100 µM | 0.2 µM and 0.0445 µM | 43.9 µM and 26.8 µM | 0.506 | 23.4 µM and > 100 µM |  |  | 
2 | C=C(C)[C@@H]1CC[C@]2(C(=O)NCCNCCNCCN)CC[C@]3(C)[C@H](CC[C@@H]4[C@@]5(C)CCC(=O)C(C)(C)[C@@H]5CC[C@]43C)[C@@H]12 | 16.6 | 8.38 | 8.47 | 16.6 µM | > 50 | > 50 µM | 19.2 | 7.56 | 15.3 µM | 7.47 | 14.1 µM | 6.78 | 22 µM | 6.99 µM | 13.5 µM | 7.91 | 16.6 µM | 8.41 | 19 | 8.3
3 | N#C[C@H]1Nc2ccccc2[C@@H](O)C1O (some centres not stated) | > 100 |  |  | > 100 µM |  | > 100 µM | > 100 |  | > 100 µM |  | > 100 µM |  | > 100 µM |  | > 100 µM |  | > 100 µM |  | > 100 | 
4 | CN1CCC(n2[nH]c(-c3ccccc3)c(Cc3ccccc3)c2=O)CC1 | > 100 |  |  | > 100 µM |  | > 100 µM | > 100 |  | > 100 µM |  | > 100 µM |  | > 100 µM |  | > 100 µM |  | > 100 µM |  | > 100 | 
5 | N=C(N)c1ccc(-c2ccc(-c3ccc(F)cc3)o2)o1 | 4.1 | 1.23 | 1.44 | 3.41 µM | 1.76 | 3.39 µM | 4.82 | 1.8 | 3.65 µM | 1.8 | 3.36 µM | 2.48 | 6.1 µM | 1.56 µM | 2.92 µM | 0.943 | 2.38 µM | 1.67 | 2.79 | 1.95
6 | COC(=O)[C@@H]1CCCN1C(=O)[C@H]1CCCN1C(=O)[C@@H](Cc1c[nH]c2ccccc12)NC(=S)Nc1cc(C(F)(F)F)cc(C(F)(F)F)c1 | 21.4 | 2.41 | 2.84 | 8.01 µM | 2.14 | 3.98 µM | 13.4 | 3.14 | 10.9 µM | 2.24 | 4.63 µM | 2.62 | 7.93 µM | 2.45 µM | 7.11 µM | 3.19 | 11.2 µM | 3.96 | 5.86 | 2.94
7 | O=C1CC/C(=C\COc2ccc3ccc(=O)oc3c2)O1 | 43 | 3.28 | 10.1 | 45.2 µM | 10.9 | 36.8 µM | 81.7 | 10.3 | 28.8 µM | 1.89 | 14.1 µM | 1.07 | 17.3 µM | 14.5 µM | 32.7 µM | 2.35 | 14.9 µM | 14.9 | 13.9 | 11.7
8 | O=[N+]([O-])c1cccc(-c2cc(-c3cc(Br)ccc3O)[nH]n2)c1 | 8.94 | 2.08 | 2.13 | 6 µM | 1.99 | 6.53 µM | 9.29 | 3.19 | 12.4 µM | 3.44 | 12.3 µM | 1.47 | 4.75 µM | 1.61 µM | 3.35 µM | 2.81 | 12.3 µM | 3.11 | 5.03 | 2.15
9 | O=[N+]([O-])c1ccc(N=Nc2c(O)[nH]c3ccccc23)cc1 | 48.5 |  |  | > 100 µM |  | > 100 µM | 51.6 |  | > 100 µM |  | 36.4 µM |  | > 100 µM |  | > 77.3 µM |  | > 100 µM |  | > 100 | 
10 | O=C1OCC2=C1C(c1cccc(C(F)(F)F)c1)c1cc3c(cc1N2CCO)CCC3 (configuration not stated) | 6.82 | 0.159 | 0.157 | 6.37 µM | 0.34 | 10.6 µM | 7.72 | 0.309 | 7.76 µM | 0.195 | 5.66 µM | 0.239 | 12.8 µM | 0.156 µM | 2.18 µM | 0.189 | 9.16 µM | 0.153 | 6.2 | 0.146
11 | COc1ccc2c(c1)C(=O)c1c-2n(CCCN2CCOCC2)c(=O)c2cc([N+](=O)[O-])ccc12 | < 0.0279 | < 0.01 | < 0.01 | 0.544 µM | 0.0763 | 3.95 µM | 22.3 | < 0.01 | 19.4 µM | < 0.01 | 0.0106 µM | < 0.01 | 0.147 µM | < 0.01 µM | < 0.01 µM | < 0.01 | 9.2 µM | < 0.01 | < 0.01 | 0.719
